Experimental data taken from ChEMBL document CHEMBL3885881, “DrugMatrix”.

Organism: Rattus norvegicus
Experiment: DrugMatrix - Regimen: Daily Repeat
Assay type: toxicity, organism-based, Sprague-Dawley
Set-up: regimen Daily Repeat, gender Male, age 6-8 weeks
Details: in vivo, po, route oral GAVAGE, […]; for ABSOLUTE BASOPHIL / BASOPHIL / NUCLEATED RED BLOOD CELLS / ABSOLUTE EOSINOPHIL / EOSINOPHIL / HEMOGLOBIN / PLATELET COUNT / ABSOLUTE LYMPHOCYTE / ABSOLUTE MONOCYTE / ABSOLUTE SEGMENTED NEUTROPHIL / ERYTHROCYTE COUNT / HEMATOCRIT / LYMPHOCYTE / MEAN CORPUSCULAR HEMOGLOBIN CONCENTRATION / MEAN CORPUSCULAR VOLUME: tissue Blood; for ASPARTATE AMINOTRANSFERASE / ALANINE AMINOTRANSFERASE / ALBUMIN / ALKALINE PHOSPHATASE / BLOOD UREA NITROGEN / CARBON DIOXIDE / CREATINE PHOSPHOKINASE / CREATININE / LACTATE DEHYDROGENASE / TOTAL BILIRUBIN / TOTAL PROTEIN / URIC ACID: tissue Plasma
[1] = 0 mg/kg, 72 h, dose level Control, time 3 day
[2] = 0 mg/kg, 120 h, dose level Control, time 5 day
[3] = 0 mg/kg, dose level Control, time 7 day
[4] = 43 mg/kg, 72 h, dose level Low, time 3 day
[5] = 43 mg/kg, 120 h, dose level Low, time 5 day
[6] = 100 mg/kg, 72 h, dose level M1, time 3 day
[7] = 100 mg/kg, dose level M1, time 7 day
[8] = 215 mg/kg, 72 h, dose level M2, time 3 day

Which results are given for `CC(C)OC(=O)C(C)(C)Oc1ccc(C(=O)c2ccc(Cl)cc2)cc1` [FENOFIBRATE]?
ABSOLUTE BASOPHIL [1]: 0 CELLS/uL; BASOPHIL [1]: 0%; NUCLEATED RED BLOOD CELLS [1]: 0 /100WBC; ABSOLUTE BASOPHIL [2]: 0 CELLS/uL; ABSOLUTE EOSINOPHIL [2]: 0 CELLS/uL; BASOPHIL [2]: 0%; EOSINOPHIL [2]: 0%; HEMOGLOBIN [2]: 13.5 G/DL; PLATELET COUNT [2]: 807.17 x10E3/uL; ASPARTATE AMINOTRANSFERASE [2]: 83 u/L; ABSOLUTE BASOPHIL [3]: 0 CELLS/uL; ABSOLUTE EOSINOPHIL [3]: 19 CELLS/uL; ABSOLUTE LYMPHOCYTE [3]: 7803.5 CELLS/uL; ABSOLUTE MONOCYTE [3]: 117.83 CELLS/uL; ABSOLUTE SEGMENTED NEUTROPHIL [3]: 1093 CELLS/uL; BASOPHIL [3]: 0%; EOSINOPHIL [3]: 0.17%; ERYTHROCYTE COUNT [3]: 5.84 x10E6/uL; HEMATOCRIT [3]: 35.75%; HEMOGLOBIN [3]: 13.87 G/DL; LYMPHOCYTE [3]: 87.17%; MEAN CORPUSCULAR HEMOGLOBIN CONCENTRATION [3]: 38.8 G/DL; MEAN CORPUSCULAR VOLUME [3]: 61.25 fL; NUCLEATED RED BLOOD CELLS [3]: 0 /100WBC; PLATELET COUNT [3]: 1098.67 x10E3/uL; ALANINE AMINOTRANSFERASE [3]: 66 u/L; ALBUMIN [3]: 4.3 G/DL; ALKALINE PHOSPHATASE [3]: 291.83 u/L; ASPARTATE AMINOTRANSFERASE [3]: 80.5 u/L; BLOOD UREA NITROGEN [3]: 15.67 mg/dL; CARBON DIOXIDE [3]: 30 mmol/L; CREATINE PHOSPHOKINASE [3]: 363.33 u/L; CREATININE [3]: 0.25 mg/dL; LACTATE DEHYDROGENASE [3]: 219.67 u/L; TOTAL BILIRUBIN [3]: 0.12 mg/dL; TOTAL PROTEIN [3]: 6.33 G/DL; URIC ACID [3]: 0.75 mg/dL; ABSOLUTE BASOPHIL [4]: 0 CELLS/uL; ABSOLUTE EOSINOPHIL [4]: 76 CELLS/uL; ABSOLUTE LYMPHOCYTE [4]: 10300 CELLS/uL; ABSOLUTE MONOCYTE [4]: 0 CELLS/uL; ABSOLUTE SEGMENTED NEUTROPHIL [4]: 324 CELLS/uL; BASOPHIL [4]: 0%; EOSINOPHIL [4]: 0.67%; ERYTHROCYTE COUNT [4]: 5.15 x10E6/uL; HEMATOCRIT [4]: 32.83%; HEMOGLOBIN [4]: 12.83 G/DL; LYMPHOCYTE [4]: 96.33%; MEAN CORPUSCULAR HEMOGLOBIN CONCENTRATION [4]: 39.07 G/DL; MEAN CORPUSCULAR VOLUME [4]: 63.77 fL; NUCLEATED RED BLOOD CELLS [4]: 0.33 /100WBC; PLATELET COUNT [4]: 922 x10E3/uL; ALANINE AMINOTRANSFERASE [4]: 71 u/L; ALBUMIN [4]: 3.7 G/DL; ALKALINE PHOSPHATASE [4]: 389.33 u/L; ASPARTATE AMINOTRANSFERASE [4]: 87.67 u/L; BLOOD UREA NITROGEN [4]: 7 mg/dL; CARBON DIOXIDE [4]: 22 mmol/L; CREATINE PHOSPHOKINASE [4]: 129.33 u/L; CREATININE [4]: 0.13 mg/dL; LACTATE DEHYDROGENASE [4]: 74.33 u/L; TOTAL BILIRUBIN [4]: 0.1 mg/dL; TOTAL PROTEIN [4]: 4.67 G/DL; URIC ACID [4]: 0.63 mg/dL; ABSOLUTE BASOPHIL [5]: 0 CELLS/uL; ABSOLUTE EOSINOPHIL [5]: 51.33 CELLS/uL; ABSOLUTE LYMPHOCYTE [5]: 9774.33 CELLS/uL; ABSOLUTE MONOCYTE [5]: 51.33 CELLS/uL; ABSOLUTE SEGMENTED NEUTROPHIL [5]: 823 CELLS/uL; BASOPHIL [5]: 0%; EOSINOPHIL [5]: 0.67%; ERYTHROCYTE COUNT [5]: 4.75 x10E6/uL; HEMATOCRIT [5]: 30.63%; HEMOGLOBIN [5]: 12.1 G/DL; LYMPHOCYTE [5]: 91.33%; MEAN CORPUSCULAR HEMOGLOBIN CONCENTRATION [5]: 39.5 G/DL; MEAN CORPUSCULAR VOLUME [5]: 64.5 fL; NUCLEATED RED BLOOD CELLS [5]: 0 /100WBC; PLATELET COUNT [5]: 848.67 x10E3/uL; ALANINE AMINOTRANSFERASE [5]: 54.67 u/L; ALBUMIN [5]: 4.57 G/DL; ALKALINE PHOSPHATASE [5]: 365.33 u/L; ASPARTATE AMINOTRANSFERASE [5]: 98.33 u/L; BLOOD UREA NITROGEN [5]: 12.33 mg/dL; CARBON DIOXIDE [5]: 27 mmol/L; CREATINE PHOSPHOKINASE [5]: 885.67 u/L; CREATININE [5]: 0.27 mg/dL; LACTATE DEHYDROGENASE [5]: 151.33 u/L; TOTAL BILIRUBIN [5]: 0.13 mg/dL; TOTAL PROTEIN [5]: 5.73 G/DL; URIC ACID [5]: 0.97 mg/dL; ABSOLUTE BASOPHIL [6]: 0 CELLS/uL; ABSOLUTE EOSINOPHIL [6]: 17.33 CELLS/uL; ABSOLUTE LYMPHOCYTE [6]: 10964.5 CELLS/uL; ABSOLUTE MONOCYTE [6]: 176.17 CELLS/uL; ABSOLUTE SEGMENTED NEUTROPHIL [6]: 858.67 CELLS/uL; BASOPHIL [6]: 0%; EOSINOPHIL [6]: 0.17%; ERYTHROCYTE COUNT [6]: 5.66 x10E6/uL; HEMATOCRIT [6]: 35.15%; HEMOGLOBIN [6]: 14.03 G/DL; LYMPHOCYTE [6]: 91.17%; MEAN CORPUSCULAR HEMOGLOBIN CONCENTRATION [6]: 39.97 G/DL; MEAN CORPUSCULAR VOLUME [6]: 62.08 fL; NUCLEATED RED BLOOD CELLS [6]: 0 /100WBC; ALANINE AMINOTRANSFERASE [6]: 54.33 u/L; ALBUMIN [6]: 4.53 G/DL; ALKALINE PHOSPHATASE [6]: 352 u/L; ASPARTATE AMINOTRANSFERASE [6]: 82 u/L; CARBON DIOXIDE [6]: 33 mmol/L; CREATINE PHOSPHOKINASE [6]: 171.5 u/L; CREATININE [6]: 0.19 mg/dL; LACTATE DEHYDROGENASE [6]: 147.33 u/L; TOTAL BILIRUBIN [6]: 0.17 mg/dL; TOTAL PROTEIN [6]: 5.83 G/DL; ABSOLUTE BASOPHIL [7]: 0 CELLS/uL; ABSOLUTE EOSINOPHIL [7]: 14.83 CELLS/uL; ABSOLUTE LYMPHOCYTE [7]: 8599.83 CELLS/uL; ABSOLUTE SEGMENTED NEUTROPHIL [7]: 668 CELLS/uL; BASOPHIL [7]: 0%; EOSINOPHIL [7]: 0.17%; ERYTHROCYTE COUNT [7]: 5.49 x10E6/uL; HEMATOCRIT [7]: 33.87%; HEMOGLOBIN [7]: 13.08 G/DL; LYMPHOCYTE [7]: 92.33%; MEAN CORPUSCULAR HEMOGLOBIN CONCENTRATION [7]: 38.63 G/DL; MEAN CORPUSCULAR VOLUME [7]: 61.8 fL; NUCLEATED RED BLOOD CELLS [7]: 0 /100WBC; PLATELET COUNT [7]: 1292.17 x10E3/uL; ALANINE AMINOTRANSFERASE [7]: 74.17 u/L; ALBUMIN [7]: 5.1 G/DL; ALKALINE PHOSPHATASE [7]: 331.67 u/L; ASPARTATE AMINOTRANSFERASE [7]: 84.67 u/L; BLOOD UREA NITROGEN [7]: 15.33 mg/dL; CARBON DIOXIDE [7]: 31.67 mmol/L; CREATINE PHOSPHOKINASE [7]: 252 u/L; CREATININE [7]: 0.24 mg/dL; LACTATE DEHYDROGENASE [7]: 121.33 u/L; TOTAL BILIRUBIN [7]: 0.1 mg/dL; TOTAL PROTEIN [7]: 6.25 G/DL; ABSOLUTE BASOPHIL [8]: 0 CELLS/uL; ABSOLUTE EOSINOPHIL [8]: 60.33 CELLS/uL; ABSOLUTE LYMPHOCYTE [8]: 18749.67 CELLS/uL; ABSOLUTE MONOCYTE [8]: 284.33 CELLS/uL; ABSOLUTE SEGMENTED NEUTROPHIL [8]: 1839 CELLS/uL; BASOPHIL [8]: 0%; EOSINOPHIL [8]: 0.33%; ERYTHROCYTE COUNT [8]: 5.51 x10E6/uL; HEMATOCRIT [8]: 33.9%
